Experiment in all cases: In vitro PAK inhibition assay (Z'-LYTE, SelectScreen Kinase Profiling)
Assay type in all cases: biochemical

Assay [1] concerns the target PAK2 (PAK65) (Homo sapiens, UniProt Q13177). The protocol: (§1) Compounds are screened in 1% DMSO (final) in the well. For 10 point titrations, 3-fold serial dilutions are conducted. All Peptide/Kinase Mixtures are diluted to a 2× working concentration in the appropriate Kinase Buffer
The 2×PAK2 (PAK65)/Ser/Thr 20 mixture is prepared in 50 mM HEPES pH 7.5, 0.01% BRIJ-35, 10 mM MgCl2, 1 mM EGTA. The final 10 μL Kinase Reaction consists of 0.29-6 ng PAK2 (PAK65) and 2 μM Ser/Thr 20 in 50 mM HEPES pH 7.5, 0.01% BRIJ-35, 10 mM MgCl2, 1 mM EGTA.
(§2) Add the following solutions to a well in a 384-well plate: 2.5 μL of 4× Test Compound OR (100 nL 100× Test Compound plus 2.4 μL kinase buffer) • 5 μL of 2× Peptide/Kinase (PAK) Mixture • 2.5 μL of 4×ATP Solution • 2. Shake the plate for 30-seconds • 3. Incubate the PAK Kinase Reaction at room temperature for 60-minutes • 4. Add 5 μL of Development Reagent Solution to each well • 5. Shake the plate for 30-seconds • 6. Incubate the Development Reaction for 60-minutes • 7. Determine the fluorescence using a fluorescence plate reader • 8. Analyze the fluorescence data
(§3) SelectScreen® Kinase Profiling Service uses XLfit from IDBS.

Assay [2] addresses PAK1 (Homo sapiens, UniProt Q13153). As for the experimental part: as §1
The 2×PAK1/Ser/Thr 19 mixture is prepared in 50 mM HEPES pH 7.5, 0.01% BRIJ-35, 10 mM MgCl2, 1 mM EGTA.
as §2, §3

Assay [3] has as its target PAK-4 (Homo sapiens, UniProt O96013). The note with it: read-out: PAK4 IC50. The protocol:
as §1
The 2X PAK-4/Ser/Thr 20 mixture is prepared in 50 mM HEPES pH 7.5, 0.01% BRIJ-35, 10 mM MgCl2, 1 mM EGTA. The final 10 μL Kinase Reaction consists of 0.1-0.75 ng PAK-4 and 2 μM Ser/Thr 20 in 50 mM HEPES pH 7.5, 0.01% BRIJ-35, 10 mM MgCl2, 1 mM EGTA. After the 1 hour Kinase Reaction incubation, 5 μL of a 1:256 dilution of Development Reagent A is added.
as §2, with “Bar-coded Corning, low volume NBS, black 384-well plate (Corning Cat. #3676) • 1. Add the” for “Add the”
SelectScreen® Kinase Profiling Service uses XLfit from IDBS. The dose response curve is curve fit to model number 205 (sigmoidal dose-response model).

In assay [4] the target is PAK3 (Homo sapiens, UniProt O75914). The protocol: as §1
The 2×PAK3/Ser/Thr 20 mixture is prepared in 50 mM HEPES pH 7.5, 0.01% BRIJ-35, 10 mM MgCl2, 1 mM EGTA.
as §2, §3

The IC50 is the concentration that inhibits the measured activity by half.

Molecules are shown by their SMILES. Where only a bound is given, the exact number is not on record here.

Chain of PAK1 (Q13153 whole entry): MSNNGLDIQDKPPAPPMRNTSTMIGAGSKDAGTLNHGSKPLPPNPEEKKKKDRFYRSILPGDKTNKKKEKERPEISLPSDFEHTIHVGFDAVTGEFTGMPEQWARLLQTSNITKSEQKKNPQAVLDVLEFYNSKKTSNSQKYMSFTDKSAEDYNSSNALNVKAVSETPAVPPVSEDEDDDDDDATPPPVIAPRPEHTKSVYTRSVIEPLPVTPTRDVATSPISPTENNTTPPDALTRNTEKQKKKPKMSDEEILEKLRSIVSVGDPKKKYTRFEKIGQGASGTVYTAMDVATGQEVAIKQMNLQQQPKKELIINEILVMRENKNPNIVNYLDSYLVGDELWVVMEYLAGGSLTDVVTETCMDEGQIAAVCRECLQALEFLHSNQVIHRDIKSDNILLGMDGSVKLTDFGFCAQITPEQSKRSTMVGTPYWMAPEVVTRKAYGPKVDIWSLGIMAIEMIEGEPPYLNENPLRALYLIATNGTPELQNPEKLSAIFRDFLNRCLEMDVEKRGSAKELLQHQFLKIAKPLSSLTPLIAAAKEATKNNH
Chain of PAK3 (O75914 whole entry): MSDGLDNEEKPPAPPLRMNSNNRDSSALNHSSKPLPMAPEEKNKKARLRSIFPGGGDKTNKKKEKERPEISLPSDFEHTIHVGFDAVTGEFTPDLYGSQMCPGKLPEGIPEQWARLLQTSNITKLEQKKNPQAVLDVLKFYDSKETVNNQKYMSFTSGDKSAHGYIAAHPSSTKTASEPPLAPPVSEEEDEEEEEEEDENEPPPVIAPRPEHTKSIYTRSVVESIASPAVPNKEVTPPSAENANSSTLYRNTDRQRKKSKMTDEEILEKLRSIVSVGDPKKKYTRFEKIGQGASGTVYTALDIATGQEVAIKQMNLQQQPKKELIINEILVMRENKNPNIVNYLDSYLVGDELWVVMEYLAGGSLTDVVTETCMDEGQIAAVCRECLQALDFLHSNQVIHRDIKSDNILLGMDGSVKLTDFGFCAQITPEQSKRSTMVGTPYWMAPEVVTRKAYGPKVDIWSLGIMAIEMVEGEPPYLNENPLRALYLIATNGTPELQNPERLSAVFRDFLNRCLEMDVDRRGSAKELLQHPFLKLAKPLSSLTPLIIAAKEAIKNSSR
Chain of PAK-4 (O96013 whole entry): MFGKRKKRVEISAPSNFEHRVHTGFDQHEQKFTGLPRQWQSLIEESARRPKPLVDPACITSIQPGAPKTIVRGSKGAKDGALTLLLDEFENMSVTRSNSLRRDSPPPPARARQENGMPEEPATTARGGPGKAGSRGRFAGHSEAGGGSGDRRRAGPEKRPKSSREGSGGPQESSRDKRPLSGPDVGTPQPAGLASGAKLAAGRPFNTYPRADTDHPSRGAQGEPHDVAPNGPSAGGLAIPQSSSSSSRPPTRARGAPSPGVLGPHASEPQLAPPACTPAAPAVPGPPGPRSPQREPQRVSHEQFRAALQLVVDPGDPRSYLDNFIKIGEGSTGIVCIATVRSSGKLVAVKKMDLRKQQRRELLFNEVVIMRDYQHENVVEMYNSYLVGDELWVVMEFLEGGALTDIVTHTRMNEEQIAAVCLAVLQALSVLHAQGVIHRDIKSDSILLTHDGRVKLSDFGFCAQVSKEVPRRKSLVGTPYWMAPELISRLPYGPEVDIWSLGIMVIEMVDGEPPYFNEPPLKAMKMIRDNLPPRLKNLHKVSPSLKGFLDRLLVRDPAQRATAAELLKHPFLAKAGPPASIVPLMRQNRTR
Chain of PAK2 (PAK65) (Q13177 whole entry): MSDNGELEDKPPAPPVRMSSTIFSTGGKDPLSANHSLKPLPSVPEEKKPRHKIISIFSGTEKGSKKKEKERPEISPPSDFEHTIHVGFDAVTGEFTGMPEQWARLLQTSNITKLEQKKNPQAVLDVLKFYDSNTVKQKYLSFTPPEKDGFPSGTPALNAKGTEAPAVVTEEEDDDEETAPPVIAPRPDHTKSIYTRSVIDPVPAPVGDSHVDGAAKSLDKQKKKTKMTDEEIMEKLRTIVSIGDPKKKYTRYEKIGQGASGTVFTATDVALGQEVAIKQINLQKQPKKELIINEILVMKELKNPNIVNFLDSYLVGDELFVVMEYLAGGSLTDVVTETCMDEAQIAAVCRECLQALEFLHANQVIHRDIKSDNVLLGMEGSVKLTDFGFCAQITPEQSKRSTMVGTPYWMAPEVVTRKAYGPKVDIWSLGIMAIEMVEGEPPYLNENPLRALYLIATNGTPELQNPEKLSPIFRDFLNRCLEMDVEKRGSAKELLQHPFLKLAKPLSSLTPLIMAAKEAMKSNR

Take `CCn1c(=O)c(-c2ccc(-c3ccnc(C(N)=O)c3)cc2Cl)cc2cnc(Nc3ccc(C4CCN(C)CC4)cc3)nc21`: the IC50 in assay [1] is 50 to 500 nM; in assay [2] it was 50 to 500 nM; in assay [3], at least 5 µM; in assay [4] it was 50 to 500 nM.

For `CCN1CCC(c2ccc(Nc3ncc4cc(-c5ccc(-c6ccc(C)nc6)cc5Cl)c(=O)n(CC)c4n3)cc2)CC1`, the IC50 was below 50 nM in assay [1], below 50 nM in assay [2], 0.5 to 5 µM in assay [3] and below 50 nM in assay [4].

Take `CCn1c(=O)c(-c2ccc(-c3cccnc3C)cc2Cl)cc2cnc(Nc3ccc(C4CCNCC4)cc3)nc21`: the IC50 is below 50 nM in assay [1], below 50 nM in assay [2], at least 5 µM in assay [3] and below 50 nM in assay [4].

With `CCn1c(=O)c(-c2ccc(-c3nccnc3C)cc2Cl)cc2cnc(Nc3ccc(C4CCN(C)CC4)cc3)nc21`, the concentration for half-maximal inhibition (IC50) was below 50 nM in assay [1], below 50 nM in assay [2], 0.5 to 5 µM in assay [3] and below 50 nM in assay [4].

Take `CCn1c(=O)c(-c2ccc(-c3cccnc3)cc2Cl)cc2cnc(Nc3ccc(CCN(C)C)cc3)nc21`: the half-maximal inhibitory concentration (IC50) in assay [1] was below 50 nM; in assay [2], below 50 nM; in assay [3] it was 0.5 to 5 µM; in assay [4], below 50 nM.

On to `CCn1c(=O)c(-c2ccc(-c3cccnc3F)cc2Cl)cc2cnc(Nc3ccc(C4CCN5CCCC5C4)cc3)nc21` (stereo not shown), for which the IC50 in assay [1] is below 50 nM; in assay [2], below 50 nM; in assay [3] it was 0.5 to 5 µM; in assay [4] it was below 50 nM.

Take `CCn1c(=O)c(-c2ccc(-c3cncs3)cc2Cl)cc2cnc(Nc3ccc(N4CCN(C)CC4)cc3)nc21`: in assay [3], the IC50 is at least 5 µM.

In the case of `Cc1nc(-c2ccc(-c3cc4cnc(Nc5ccc(C6CCN(C)CC6)cc5)nc4n(C)c3=O)c(Cl)c2)no1`, the 50% inhibitory concentration (IC50) in assay [1] was below 50 nM; in assay [2], below 50 nM; in assay [3], at least 5 µM; in assay [4], below 50 nM.

Consider `CCn1c(=O)c(-c2ccc(-c3noc(C)n3)cc2Cl)cc2cnc(Nc3ccc(C4CCN(C)CC4)cc3)nc21`, for which the IC50 in assay [1] was below 50 nM; in assay [2] it was below 50 nM; in assay [3] it was 0.5 to 5 µM; in assay [4] it was below 50 nM.

With `CC#Cc1cc2cnc(Nc3ccc(N4CCN(C)CC4)cc3)nc2n(Cc2ccccc2C(F)(F)F)c1=O`, the IC50 in assay [1] is 50 to 500 nM; in assay [2] it was 50 to 500 nM; in assay [3], 0.5 to 5 µM; in assay [4] it was 500 to 5000 nM.

Consider `CCn1c(=O)c(-c2ccc(-c3cccnc3F)cc2Cl)cc2cnc(Nc3ccc(C4CCN(C)CC4)cc3)nc21`, for which the IC50 is below 50 nM in assay [1], below 50 nM in assay [2], 0.05 to 0.5 µM in assay [3] and below 50 nM in assay [4].

In the case of `CCn1c(=O)c(-c2ccc(-c3cccnc3C)nc2)cc2cnc(Nc3ccc(C4CCN(C)CC4)cc3)nc21`, the IC50 in assay [1] was above 5000 nM; in assay [2] it was above 5000 nM; in assay [3], at least 5 µM; in assay [4], above 5000 nM.

For the compound `CCn1c(=O)c(-c2ccc(-c3cnc(C)cn3)cc2Cl)cc2cnc(Nc3ccc(C4CCN(C)CC4)cc3)nc21`, the IC50 in assay [1] was below 50 nM; in assay [2], below 50 nM; in assay [3] it was 0.05 to 0.5 µM; in assay [4], below 50 nM.

In the case of `CCn1c(=O)c(-c2ccc(S(C)(=O)=O)cc2)cc2cnc(Nc3ccc(N4CCN(C)CC4)cc3)nc21`, the 50% inhibitory concentration (IC50) is above 5000 nM in assay [1], above 5000 nM in assay [2], at least 5 µM in assay [3] and above 5000 nM in assay [4].

Take `CCn1c(=O)c(-c2ccc(-c3ccnc(C)n3)cc2Cl)cc2cnc(Nc3ccc(C4CCN(C)CC4)cc3)nc21`: the half-maximal inhibitory concentration (IC50) in assay [1] was below 50 nM; in assay [2] it was below 50 nM; in assay [3] it was 0.5 to 5 µM; in assay [4] it was below 50 nM.

In the case of `CCn1c(=O)c(-c2ccc(-c3cnc(C)s3)cc2Cl)cc2cnc(Nc3ccc(C4CCN(C)CC4)cc3)nc21`, the IC50 is below 50 nM in assay [1], below 50 nM in assay [2], 0.5 to 5 µM in assay [3] and below 50 nM in assay [4].

In the case of `CN1CCN(c2ccc(Nc3ncc4ccc(=O)n(Cc5ncsc5C5CC5)c4n3)cc2)CC1`, the IC50 in assay [1] lay within 500 to 5000 nM; in assay [2] it was 50 to 500 nM; in assay [3], 0.5 to 5 µM; in assay [4], 500 to 5000 nM.

Take `CN1CCC(c2ccc(Nc3ncc4ccc(=O)n(Cc5c(F)cccc5C5CC5)c4n3)cc2)CC1`: the IC50 in assay [1] was 50 to 500 nM; in assay [2], below 50 nM; in assay [3], 0.05 to 0.5 µM; in assay [4], 50 to 500 nM.

Consider `CCn1c(=O)c(-c2ccc(-c3cncc(C)n3)cc2Cl)cc2cnc(Nc3ccc(C4CCN(C)CC4)cc3)nc21`, for which the half-inhibitory concentration (IC50) in assay [1] was below 50 nM; in assay [2], below 50 nM; in assay [3] it was 0.5 to 5 µM; in assay [4], below 50 nM.

As for `CN(C)CCc1ccc(Nc2ncc3cc(-c4cc(N(C)C)c(-c5cccnc5)cc4Cl)c(=O)n(C)c3n2)cc1`, the IC50 in assay [1] was 50 to 500 nM; in assay [2], below 50 nM; in assay [3], at least 5 µM; in assay [4], below 50 nM.

Regarding `CCn1c(=O)c(-c2ccc(-c3cccnc3F)cc2Cl)cc2cnc(Nc3ccc(C4CCNCC4)cc3)nc21`, the IC50 in assay [1] is below 50 nM; in assay [2], below 50 nM; in assay [3], 0.05 to 0.5 µM; in assay [4] it was below 50 nM.

Turning to `CCN1CCN(c2ccc(Nc3ncc4cc(-c5ccc(-c6cccnc6)cc5Cl)c(=O)n(CC)c4n3)cc2F)CC1` [drawing 727], the IC50 in assay [1] was below 50 nM; in assay [2], below 50 nM; in assay [3] it was at least 5 µM; in assay [4] it was below 50 nM.

Take `CCN1CCC(c2ccc(Nc3ncc4cc(-c5ccc(-c6cccnc6C)cc5Cl)c(=O)n(CC)c4n3)cc2)CC1`: the half-inhibitory concentration (IC50) in assay [1] is below 50 nM; in assay [2] it was below 50 nM; in assay [3], at least 5 µM; in assay [4] it was below 50 nM.

As for `CCn1c(=O)c(-c2ccc(-c3noc(C)n3)cc2Cl)cc2cnc(Nc3ccc(C4CCNCC4)cc3)nc21`, the half-inhibitory concentration (IC50) in assay [1] was below 50 nM; in assay [2], below 50 nM; in assay [3], 0.5 to 5 µM; in assay [4] it was 50 to 500 nM.

`CN1CCN(c2ccc(Nc3ncc4ccc(=O)n(Cc5occc5C5CC5)c4n3)cc2)CC1`: the half-maximal inhibitory concentration (IC50) in assay [1] was in the range of 500 to 5000 nM; in assay [2], 500 to 5000 nM; in assay [3], 0.5 to 5 µM; in assay [4], 500 to 5000 nM.

As to `CCN1CCC(c2ccc(Nc3ncc4cc(-c5ccc(-c6noc(C)n6)cc5Cl)c(=O)n(CC)c4n3)cc2)CC1`, the IC50 in assay [1] was below 50 nM; in assay [2], below 50 nM; in assay [3], 0.5 to 5 µM; in assay [4] it was below 50 nM.

Take `CCn1c(=O)c(-c2ccc(-c3ccnc(C)c3)cc2Cl)cc2cnc(Nc3ccc(C4CCNCC4)c(F)c3)nc21`: the concentration for half-maximal inhibition (IC50) in assay [1] is below 50 nM; in assay [2], below 50 nM; in assay [3] it was 0.5 to 5 µM; in assay [4], 50 to 500 nM.

Take `CCS(=O)(=O)c1ccccc1Cn1c(=O)c(-c2ccccc2Cl)cc2cnc(Nc3ccc(N4CCN(C)CC4)cc3)nc21`: the IC50 in assay [1] is below 50 nM; in assay [2] it was below 50 nM; in assay [3], 0.5 to 5 µM; in assay [4], below 50 nM.

In the case of `CC#Cc1cc2cnc(Nc3ccc(N4CCN(C)CC4)cc3)nc2n(Cc2c(F)cccc2C2CC2)c1=O`, the half-maximal inhibitory concentration (IC50) in assay [1] fell in the range of 50 to 500 nM; in assay [2], 50 to 500 nM; in assay [3] it was 0.5 to 5 µM; in assay [4], 50 to 500 nM.

As for `CCn1c(=O)c(-c2cccc(S(C)(=O)=O)c2)cc2cnc(Nc3ccc(N4CCN(C)CC4)cc3)nc21`, the IC50 in assay [1] was 500 to 5000 nM; in assay [2] it was 50 to 500 nM; in assay [3], at least 5 µM; in assay [4], 50 to 500 nM.

On to `CCS(=O)(=O)c1ccccc1Cn1c(=O)ccc2cnc(Nc3ccc(N4CCN(C)CC4)cc3)nc21`, for which the IC50 lay within 50 to 500 nM in assay [1], 50 to 500 nM in assay [2], 0.5 to 5 µM in assay [3] and 500 to 5000 nM in assay [4].

These data come from patent US20130158043A1, “PAK INHIBITORS FOR THE TREATMENT OF CANCER” (AFRAXIS, INC., priority 2011, published 2013).
